Common to all, as to type: cell-based
One data set in a line: MT4 Cell Toxicity Assay. To be noted: human. Here is the method: Cells used: MT4 cells were obtained from NIH AIDS research & Reference Reagent Program. Cells were used up to passage 30.
Toxicity assay using MTS: 5,000 MT4 cells were plated per well in a 96-well plate. Compounds were diluted in DMSO and further diluted with medium before adding to the plated cells. Plates were then incubated in a CO2 incubator at 37° C. for 6 days.
Cell viability was estimated using MTS, a tetrazolium compound [3-(4,5-dimethylthiazol-2-yl)-5-(3-carboxymethoxyphenyl)-2-(4-sulfophenyl)-2H-tetrazolium], which is converted to a soluble formazan by mitochondrial dehydrogenases in the presence of an electron coupling reagent (phenazine methosulfate; PMS). The formazan product has an absorption maximum around 490 nm. Forty microliters of MTS reagent [MTS (2 mg/ml) and PMS (0.92 mg/ml) mixed at a ratio of 20:1 just before use] was added to each well and plates incubated for 4 hrs at 37° C. Absorbance was read at 490 nm using a Synergy 2 plate reader (BioTek). Data analysis was carried out using the BioTek Gen5 software using a 4-parameter curve fitting function to determine CC50 values.

Another data set deals with HCV. As to the kind of experiment: Anti-HCV activity (HCV replicon assay). The settings on record: Hepatitis C virus. Here is the method: (§1) Antiviral activity against HCV is determined using the stably-expressing HCV replicon cell line, AVA5 (sub-genomic (CON1), genotype 1b) (Okuse, et al., Antivir. Res. 65:23 (2005); Korba, et al., Antivir. Res. 77:56 (2008); Blight, et al., Science 290:1972 (2000)). Reductions in intracellular HCV RNA are determined with respect to a cellular control (B-actin) by blot hybridization. Cytotoxicity is assessed by neutral red dye uptake in parallel plates.
Efficacy and cell cytotoxicity values (EC50, EC90 and CC50) are calculated by linear regression analysis (MS EXCEL®, QuattroPro®) (Korba & Gerin, Antivir. Res. 19:55 (1992); Okuse, et al., Antivir. Res. 65:23 (2005)). The therapeutic index is calculated as CC50/EC50. Recombinant human interferon 2b (PBL laboratories, Inc.) is included as a positive control. Activity is subsequently tested against additional genotypes (e.g., genotype 1a) using the format described for the primary assay. In addition to antiviral assays described herein, several other types of anti-HCV activities can also be assessed using methods known to one of ordinary skill in the art. […]
In general terms: A replicon is a self-replicating genome or part of one, used to study replication in cells.

Data set [1] is described as follows: Cytotoxicity (CC50) in parallel plates of the anti-HCV assay. To be noted: human. Here is the method: as §1
Efficacy and cell cytotoxicity values (EC50, EC90 and CC50) are calculated by linear regression analysis (MS EXCEL®, QuattroPro®) (Korba & Gerin, Antivir. Res. 19:55 (1992); Okuse, et al., Antivir. Res. 65:23 (2005)). The therapeutic index is calculated as CC50/EC50. Recombinant human interferon 2b (PBL laboratories, Inc.) is included as a positive control. Activity is subsequently tested against additional genotypes (e.g., genotype 1a) using the format described for the primary assay. In addition to antiviral assays described herein, several other types of anti-HCV activities can also be assessed using methods known to one of ordinary skill in the art.

A further data set relates to HepG2 cells. As to the kind of experiment: Mitochondrial Biogenesis Assay. The settings on record: 7 days, ratio of Complex IV to Frataxin. Here is the method: Cells used: HepG2 cells were obtained from ATCC. Cells are used up to 25 passages from the ATCC freeze.
Mitochondria Biogenesis Assay using HepG2 cells: 150,000 HepG2 cells were plated per well in a 6-well plate. Compounds were diluted in DMSO and further diluted in the plated cells so as to give a top concentration of 50 μM. Five four-fold dilutions were tested in this assay format. Plates were then incubated in a CO2 incubator at 37° C. for 7 days. Medium containing fresh compound was changed on day 3 and 6 of the assay. Cells were harvested on day 7 of the assay.
On day 7, cells were rinsed with 1×DPBS three times and scraped off into 1×DPBS and held on ice. Whole cell protein estimation was determined to make sure that the cells are suspended at a protein concentration of 3-5 mg/ml.
Cells were lysed on ice by addition of 1:10 volume of diluted detergent (MitoSciences) so as to have a final detergent concentration of 2%. Cells were held on ice for 1 hr and then centrifuged at ˜20K×g for 20 min. The supernatant fraction was used for determining solubilized Frataxin and Complex IV using an ELISA kit from MitoSciences. The ratio of Complex IV to Frataxin was used to determine mitochondrial toxicity. DMSO controls were run to determine ratio of Frataxin and Complex IV in control cells. ddC was run as a positive control in the assay.

The mark [2] stands for this setting: anti-HCV activity, read-out: EC50.
Setting [3] is: AVA5 HCV replicon cells (sub-genomic CON1, genotype 1b).
[4] abbreviates: MT4 cells, 6 days, MTS, read-out: MT-4 (TC50).

The results in this text go back to patent publication US20100297079A1, “COMPOUNDS, COMPOSITIONS AND METHODS FOR TREATING VIRAL INFECTION” (Chimerix, Inc., priority 2009, published 2010).

Read-outs that look alike come from different tables or passages of the source.

For orientation: EC50 means the concentration at which the effect is half-maximal.

Consider `CCCCCCCCCCCCCCCCOCCCOP1(=O)OC[C@H]2O[C@@H](n3cc(C(N)=S)c4c(N)ncnc43)[C@H](O)[C@@H]2O1` (stereo partly drawn) [Compound q], for which the CC50 at 6 days in the data set “MT4 Cell Toxicity Assay” (MT-4 (TC50) (μM)) is less than 1 µM. The EC50 with HCV (setting [2]) is less than 100 nM. The CC50 in data set [1] (setting [3]) is 1000 to 20000 nM.
For `COC(=O)[C@H](C)NP(=O)(OC[C@H]1O[C@@H](n2cc(C(N)=S)c3c(N)ncnc32)[C@](C)(O)[C@@H]1O)Oc1ccccc1` (stereo partly drawn) [Compound k], the CC50 at 6 days in “MT4 Cell Toxicity Assay” (setting [4]) was 20 to 100 µM. Besides, the EC50 in the data set on HCV lay within 100 to 1000 nM. Further, the CC50 in data set [1] was 1000 to 20000 nM. For the same molecule, the “Mitotoxicity (μM)” value in the data set on HepG2 cells was “* (up to 20 μM)”.
Consider `CC(C)=CCNc1ncnc2c1c(/C(N)=N\O)cn2[C@@H]1O[C@H](CO)[C@@H](O)[C@H]1O` [Compound a], for which the CC50 at 6 days in “MT4 Cell Toxicity Assay” (MT-4 (TC50) (μM)) is greater than 100 µM. Further, the EC50 in the data set on HCV (setting [2]) is less than 100 nM. In data set [1] (setting [3]), this molecule returned a CC50 of less than 1000 nM. For the same molecule, in the data set on HepG2 cells, the “Mitotoxicity (μM)” value is “* (up to 20 μM)”.
Regarding `C[C@@]1(O)[C@H](O)[C@@H](CO)O[C@H]1n1cc(C#N)c2c(N)ncnc21` [Compound j], the CC50 at 6 days in “MT4 Cell Toxicity Assay” (MT-4 (TC50) (μM)) lay within 20 to 100 µM. For the same molecule, the concentration giving a half-maximal response (EC50) in the data set on HCV (setting [2]) lay within 100 to 1000 nM. For the same molecule, in the data set with HepG2 cells, the “Mitotoxicity (μM)” value is “** (20-50 μM)”.
For the molecule `NC(=S)c1cn(C2O[C@H](CO)[C@@H](O)[C@H]2O)c2ncnc(N)c12` (stereo partly drawn) [Compound p], the CC50 at 6 days in “MT4 Cell Toxicity Assay” (setting [4]) was less than 1 µM. The molecule also came in with an EC50 with HCV of less than 100 nM. Besides, in data set [1], the CC50 was less than 1000 nM. Moreover, in the data set with HepG2 cells, the “Mitotoxicity (μM)” value is reported as “* (up to 20 μM)”.
`COC(=O)[C@H](C)NP(=O)(OC[C@H]1O[C@@H](n2cc(C(N)=S)c3c(N)ncnc32)[C@H](O)[C@@H]1O)Oc1ccccc1` (stereo partly drawn) [Compound g]: in “MT4 Cell Toxicity Assay” (setting [4]), the CC50 at 6 days is less than 1 µM. Besides, the EC50 in the data set with HCV is less than 100 nM. For the same molecule, the CC50 in data set [1] is less than 1000 nM.
In the case of `C[C@@]1(F)[C@H](O)[C@@H](CO)O[C@H]1n1cc(-c2cccs2)c2c(N)ncnc21` [Compound f], the EC50 in the data set on HCV (setting [2]) is greater than 5000 nM. Moreover, in the data set on HepG2 cells, the “Mitotoxicity (μM)” value is listed as “* (up to 20 μM)”.
Consider `C[C@@]1(F)[C@H](O)[C@@H](CO)O[C@H]1n1cc(Br)c2c(N)ncnc21` [Compound c], for which the CC50 in data set [1] (setting [3]) was in the range of 20000 to 100000 nM.
As for `CC(C)CCNc1ncnc2c1c(C(=N)NO)cn2[C@@H]1O[C@H](CO)[C@@H](O)[C@H]1O` [Compound n], the CC50 at 6 days in the data set “MT4 Cell Toxicity Assay” (MT-4 (TC50) (μM)) is greater than 100 µM. For the same molecule, the EC50 with HCV (setting [2]) was in the range of 1000 to 5000 nM. This molecule came in with a CC50 in data set [1] (setting [3]) of 1000 to 20000 nM.
Take `CCCCCCCCCCCCCCCCOCCCOP(=O)(O)OC[C@H]1O[C@@H](n2cc(C#N)c3c(N)ncnc32)[C@H](O)[C@@H]1O` [Compound b]: the CC50 at 6 days in “MT4 Cell Toxicity Assay” (MT-4 (TC50) (μM)) was less than 1 µM. Moreover, the EC50 in the data set on HCV (setting [2]) was less than 100 nM. The molecule further had a CC50 in data set [1] (setting [3]) of less than 1000 nM. In addition, the “Mitotoxicity (μM)” value in the data set on HepG2 cells is “* (up to 20 μM)”.
Molecule `CNC(=O)c1csc(-c2cn([C@@H]3O[C@H](CO)[C@@H](O)[C@@]3(C)O)c3ncnc(N)c23)c1` [Compound e] returned a CC50 in data set [1] (setting [3]) of 20000 to 100000 nM.
Turning to `[N-]=[N+]=N[C@H]1C(O)C(CO)OC1n1cc(C(N)=S)c2c(N)ncnc21` (stereo partly drawn) [Compound l], in the data set “MT4 Cell Toxicity Assay” (MT-4 (TC50) (μM)), the CC50 at 6 days was greater than 100 µM. In addition, in the data set with HCV (setting [2]), the concentration for a half-maximal effect (EC50) is 100 to 1000 nM. The molecule also yielded a CC50 in data set [1] (setting [3]) of 1000 to 20000 nM. In addition, the “Mitotoxicity (μM)” value in the data set on HepG2 cells was “*** (50-80 μM)”.
Take `CCCCCCCCCCCCCCCCOCCCOP(=O)(O)OC[C@H]1O[C@@H](n2cc(C(N)=S)c3c(N)ncnc32)[C@H](O)[C@@H]1O` [Compound h]: the CC50 at 6 days in the data set “MT4 Cell Toxicity Assay” (MT-4 (TC50) (μM)) is less than 1 µM. Also, the EC50 in the data set with HCV (setting [2]) was less than 100 nM. In addition, in data set [1] (setting [3]), the CC50 was less than 1000 nM.
Take `CNC(=O)c1csc(-c2cn([C@@H]3O[C@H](CO)[C@@H](O)[C@H]3O)c3ncnc(N)c23)c1` [Compound o]: the concentration giving a half-maximal response (EC50) in the data set on HCV (setting [2]) lay in the range of 1000 to 5000 nM. This molecule displayed a CC50 in data set [1] (setting [3]) of 20000 to 100000 nM.
In the case of `COC(=N)c1cn(CC2(F)COC(CO)C2O)c2ncnc(N)c12` (stereo not drawn) [Compound m], the CC50 at 6 days in “MT4 Cell Toxicity Assay” (MT-4 (TC50) (μM)) was 20 to 100 µM. In addition, the EC50 with HCV (setting [2]) is greater than 5000 nM.
Consider `Nc1ncnc2c1c(Br)cn2[C@@H]1O[C@H](CO)[C@@H](O)[C@H]1O` [Compound r], for which the CC50 at 6 days in the data set “MT4 Cell Toxicity Assay” (MT-4 (TC50) (μM)) lay within 1 to 20 µM. Moreover, the 50% effective concentration (EC50) with HCV (setting [2]) was in the range of 1000 to 5000 nM.
Regarding `C[C@]1(O)C(n2cc(C(N)=S)c3c(N)ncnc32)O[C@H](CO)[C@H]1O` (stereo partly drawn) [Compound d], the CC50 at 6 days in “MT4 Cell Toxicity Assay” (MT-4 (TC50) (μM)) was 1 to 20 µM. In the data set on HCV (setting [2]), the EC50 was in the range of 1000 to 5000 nM. Further, the “Mitotoxicity (μM)” value with HepG2 cells is listed as “* (up to 20 μM)”.
